{"source": "patent US4735792A", "about": "“Radioiodinated maleimides and use as agents for radiolabeling antibodies” (The United States of America as represented by the United …, priority 1987, dated 1988)", "key": {"albumin": {"test_system": "albumin", "assay": "Preliminary studies of binding with albumin"}, "IgG": {"test_system": "IgG", "assay": "Preliminary studies of binding with IgG"}, "[1]": {"assay": "Tissue distribution of radioactivity after intravenous administration in rats", "assay_type": "in vivo, female Fischer 344 rats (printed \"femal Fischer 344 rats\")", "conditions": "for tissue uptake at 5 min / tissue uptake at 0.5 h / tissue uptake at 1 h: rat, iv; for tissue uptake at 5 min: 5 min after i.v. injection; for tissue uptake at 0.5 h: 30 min after i.v. injection; for tissue uptake at 1 h: 60 min after i.v. injection; for binding with the blood, tissue distribution (in words) / thyroid uptake / thyroid levels of radioactivity (in words): rats; for thyroid uptake / thyroid levels of radioactivity (in words): indicative of in vivo stability of radiolabel toward deiodination", "protocol": "4-[^125 I]iodoaniline (7.4 mCi sp. act. 700 mCi/mmol) prepared following structure described in Step 1 of Example 1 was coupled with maleic anhydride (9.5 mg) in glacial acetic acid (0.15 ml) at room temperature. The radioiodinated compound, [^125 I]3 isolated by silica gel column chromatography was refluxed with acetic anhydride\nThe distribution of radiactivity in tissues of femal Fischer 344 rats\n(§1) after intravenous administration of [^125 I]4.^a\n^a Animals had body weight range of 121-139 gm. Each animal received\n3.7 ^o Ci of [^125 I]4 by tail vein injection.\nThe distribution of radioactivity in tissues of femal Fischer 344 rats\nas §1\n(75mg) and anhydrous (fused) sodium acetate (12 mg) in benzene (1.0 ml) for 3 h. The product, [^125 I]4 (3.99 mCi, 56 percent radiochemical yield based on [^125 I]3), was isolated by silica gel column chromatography. The radioactive compound [^125 I]4 was identical with an unlabeled sample of 4."}, "human γ-globulin": {"test_system": "human γ-globulin", "assay": "Binding to human γ-globulin (activity remaining in aqueous portion after ether extraction; TLC)", "conditions": "TLC of aqueous portion, radioactivity with a polar band", "protocol": "(§2) Samples of bovine albumin (45 mg/ml, 10 ml) and human γ-globulin (6.7 mg/ml. 10 ml) were prepared in phosphate buffer and 0.15 NaCl solution (PBS). A 10 ml sample of PBS was used as control. [^125 I]-IPM (10 μCi) in 100 λ DMSO was added to each sample and incubated for 30 min at 37° C. The samples were repeatedly extracted with ethyl ether. The unbound activity as [^125 I]-IPM was extracted with ethyl ether. The activity remaining in the aqueous portion was considered to be bound with the proteins."}, "[2]": {"assay": "Binding to human γ-globulin (activity remaining in aqueous portion after ether extraction; TLC)", "conditions": "gamma-globulin in pbs; human γ-globulin 6.7 mg/ml in PBS, 30 min at 37° C., after ether extraction; read-out: activity remaining in the aqueous portion (bound with protein), γ-globulin (converted)", "protocol": "as §2"}, "[3]": {"assay": "Binding to bovine albumin (activity remaining in aqueous portion after ether extraction; TLC)", "conditions": "bovine albumin 45 mg/ml in PBS, 30 min at 37° C., after ether extraction; read-out: activity remaining in the aqueous portion (bound with protein), albumin (converted)", "protocol": "as §2"}, "bovine albumin": {"test_system": "bovine albumin", "assay": "Binding to bovine albumin (activity remaining in aqueous portion after ether extraction; TLC)", "conditions": "TLC of aqueous portion, radioactivity with a polar band", "protocol": "as §2"}, "platelet proteins": {"test_system": "platelet proteins", "assay": "Preliminary studies of binding with platelet proteins"}, "red blood cells": {"test_system": "red blood cells", "assay": "Blood fractionation (plasma, red and white blood cells) studies", "assay_type": "in vivo, rat", "conditions": "rats injected with [^125 I]4", "source_text": "Blood fractionation (plasma, red and white blood cells) studies indicated 88.9% of the blood activity to be associated with red blood cells."}, "[4]": {"conditions": "blood, Table 1, blood, read-out: Mean percent injected dose/gm, Blood"}, "[5]": {"conditions": "blood, Table 2, blood, read-out: Mean percent injected dose/gm, Blood"}, "[6]": {"conditions": "heart, Table 1, heart, read-out: Mean percent injected dose/gm, Heart"}, "[7]": {"conditions": "heart, Table 2, heart, read-out: Mean percent injected dose/gm, Heart"}, "[8]": {"conditions": "kidneys, Table 1, kidneys, read-out: Mean percent injected dose/gm, Kidneys"}, "[9]": {"conditions": "kidneys, Table 2, kidneys, read-out: Mean percent injected dose/gm, Kidneys"}, "[10]": {"conditions": "liver, Table 1, liver, read-out: Mean percent injected dose/gm, Liver"}, "[11]": {"conditions": "liver, Table 2, liver, read-out: Mean percent injected dose/gm, Liver"}, "[12]": {"conditions": "lungs, Table 1, lungs, read-out: Mean percent injected dose/gm, Lungs"}, "[13]": {"conditions": "lungs, Table 2, lungs, read-out: Mean percent injected dose/gm, Lungs"}, "[14]": {"conditions": "thyroid, Table 1, thyroid, read-out: Mean percent injected dose/gm, Thyroid"}, "[15]": {"conditions": "thyroid, Table 2, thyroid, read-out: Mean percent injected dose/gm, Thyroid"}}, "note": "Where two headings read alike, the source gives them in different places."}
{"smiles": "O=C1C=CC(=O)N1c1ccc([125I])cc1", "note": "[[^125 I]4, N-(p-[^125 I]iodophenyl)maleimide]", "values": [{"measurement": "binding with albumin (in words)", "setting": "albumin", "result": "appears to bind"}, {"measurement": "binding with IgG (in words)", "setting": "IgG", "result": "appears to bind"}, {"measurement": "tissue uptake at 5 min", "setting": "[1]; [4]", "result": 8.84, "unit": "%ID/g"}, {"measurement": "tissue uptake at 0.5 h", "setting": "[1]; [4]", "result": 8.44, "unit": "%ID/g"}, {"measurement": "tissue uptake at 1 h", "setting": "[1]; [4]", "result": 7.56, "unit": "%ID/g"}, {"measurement": "tissue uptake at 5 min", "setting": "[1]; [5]", "result": 57.6, "unit": "%ID/g"}, {"measurement": "tissue uptake at 0.5 h", "setting": "[1]; [5]", "result": 54.1, "unit": "%ID/g"}, {"measurement": "tissue uptake at 1 h", "setting": "[1]; [5]", "result": 48.6, "unit": "%ID/g"}, {"measurement": "tissue uptake at 5 min", "setting": "[1]; [6]", "result": 1.45, "unit": "%ID/g"}, {"measurement": "tissue uptake at 0.5 h", "setting": "[1]; [6]", "result": 1.81, "unit": "%ID/g"}, {"measurement": "tissue uptake at 1 h", "setting": "[1]; [6]", "result": 1.74, "unit": "%ID/g"}, {"measurement": "tissue uptake at 5 min", "setting": "[1]; [7]", "result": 0.61, "unit": "%ID/g"}, {"measurement": "tissue uptake at 0.5 h", "setting": "[1]; [7]", "result": 0.79, "unit": "%ID/g"}, {"measurement": "tissue uptake at 1 h", "setting": "[1]; [7]", "result": 0.74, "unit": "%ID/g"}, {"measurement": "tissue uptake at 5 min", "setting": "[1]; [8]", "result": 2.15, "unit": "%ID/g"}, {"measurement": "tissue uptake at 0.5 h", "setting": "[1]; [8]", "result": 2.12, "unit": "%ID/g"}, {"measurement": "tissue uptake at 1 h", "setting": "[1]; [8]", "result": 2.07, "unit": "%ID/g"}, {"measurement": "tissue uptake at 5 min", "setting": "[1]; [9]", "result": 2.17, "unit": "%ID/g"}, {"measurement": "tissue uptake at 0.5 h", "setting": "[1]; [9]", "result": 2.18, "unit": "%ID/g"}, {"measurement": "tissue uptake at 1 h", "setting": "[1]; [9]", "result": 2.21, "unit": "%ID/g"}, {"measurement": "tissue uptake at 5 min", "setting": "[1]; [10]", "result": 1.9, "unit": "%ID/g"}, {"measurement": "tissue uptake at 0.5 h", "setting": "[1]; [10]", "result": 1.73, "unit": "%ID/g"}, {"measurement": "tissue uptake at 1 h", "setting": "[1]; [10]", "result": 1.5, "unit": "%ID/g"}, {"measurement": "tissue uptake at 5 min", "setting": "[1]; [11]", "result": 10.2, "unit": "%ID/g"}, {"measurement": "tissue uptake at 0.5 h", "setting": "[1]; [11]", "result": 7.85, "unit": "%ID/g"}, {"measurement": "tissue uptake at 1 h", "setting": "[1]; [11]", "result": 7.05, "unit": "%ID/g"}, {"measurement": "tissue uptake at 5 min", "setting": "[1]; [12]", "result": 2.04, "unit": "%ID/g"}, {"measurement": "tissue uptake at 0.5 h", "setting": "[1]; [12]", "result": 2.52, "unit": "%ID/g"}, {"measurement": "tissue uptake at 1 h", "setting": "[1]; [12]", "result": 2.31, "unit": "%ID/g"}, {"measurement": "tissue uptake at 5 min", "setting": "[1]; [13]", "result": 1.76, "unit": "%ID/g"}, {"measurement": "tissue uptake at 0.5 h", "setting": "[1]; [13]", "result": 1.89, "unit": "%ID/g"}, {"measurement": "tissue uptake at 1 h", "setting": "[1]; [13]", "result": 1.74, "unit": "%ID/g"}, {"measurement": "tissue uptake at 5 min", "setting": "[1]; [14]", "result": 13.7, "unit": "%ID/g"}, {"measurement": "tissue uptake at 0.5 h", "setting": "[1]; [14]", "result": 21.7, "unit": "%ID/g"}, {"measurement": "tissue uptake at 1 h", "setting": "[1]; [14]", "result": 20.5, "unit": "%ID/g"}, {"measurement": "tissue uptake at 5 min", "setting": "[1]; [15]", "result": 0.13, "unit": "%ID/g"}, {"measurement": "tissue uptake at 0.5 h", "setting": "[1]; [15]", "result": 0.2, "unit": "%ID/g"}, {"measurement": "tissue uptake at 1 h", "setting": "[1]; [15]", "result": 0.19, "unit": "%ID/g"}, {"measurement": "binding with the blood, tissue distribution (in words)", "setting": "[1]", "result": "high levels of radioactivity were associated with the blood"}, {"measurement": "thyroid uptake / thyroid levels of radioactivity (in words)", "setting": "[1]; listed as IPM", "result": "consistently low"}, {"measurement": "thyroid uptake / thyroid levels of radioactivity (in words)", "setting": "[1]; listed as maleimide agent", "result": "low"}, {"measurement": "binding with the blood, tissue distribution (in words)", "setting": "[1]; listed as IPM", "result": "preferential binding"}, {"measurement": "binding with the blood, tissue distribution (in words)", "setting": "[1]; listed as maleimide agent", "result": "preferential binding with the blood"}, {"measurement": "binding with γ-globulin by TLC (in words)", "setting": "human γ-globulin", "result": "significant binding"}, {"measurement": "fraction unbound at 0.5 h", "setting": "[2]", "result": "~0.6"}, {"measurement": "fraction unbound at 0.5 h", "setting": "[3]", "result": "~0.4"}, {"measurement": "binding with albumin by TLC (in words)", "setting": "bovine albumin", "result": "significant binding"}, {"measurement": "binding with platelet proteins (in words)", "setting": "platelet proteins", "result": "appears to bind"}, {"measurement": "blood activity associated with red blood cells", "setting": "red blood cells", "result": 88.9, "unit": "%"}]}
